Values after ≈ are worked out from the molar mass of the structure shown. Like-named read-outs stand apart in the source and are kept apart here.
Tests used:
[1] = system: K. pneumoniae (ciprofloxacin susceptible clinical isolate); test: MIC, extended panel; assay type: cell-based, Klebsiella pneumoniae
Protocol: (§1) 1.1.1 In vitro experiments
(§2) Determination of Minimal inhibitory concentrations (MIC)
(§3) Approved Standard M07-A9.1
(§4) CFU mL-1. […] Albicidin and […]
(§5) and serially diluted in DMSO (100%). […]
(§6) in 0.1 N HCL, respectively.
(§7) One row of each well plate served as a […]
(§8) sterility control (only MHB II-media). […]
(§9) adding 5 µL DMSO to several wells. […]
(§10) for growth inhibition by naked eye.
(§11) Microorganisms and Cell Cultures (DSMZ): […]
(§12) Dr. Werner (Robert-Koch-Institut, Wernigerode, Germany): […]

Tolerability assessment = assay type: in vivo, CD-1 mice; details: intravenous injection, 50 mg kg^−1, mice
Protocol: Application volume of 5 ml kg-1 was used. Samples of K-EDTA blood were collected from each mouse […]
An individual blood cell count was performed for each sample. […]
performed with help of the grimace scale to monitor any changes in facial expression. […]
were sacrificed, and a macroscopic necropsy was performed to search for damaged organs. Data of blood cell count is given in Table S7 and reference values for measured blood cell parameters are given

[2] = system: Salmonella Kentucky (ciprofloxacin susceptible clinical isolate); test: MIC, extended panel; assay type: cell-based; details: Salmonella enterica
Protocol: as §1, §2, §3, §4, §5, §6, §7, §8, §9, §10, §11, §12

[3] = system: E. coli (ciprofloxacin susceptible clinical isolate); test: MIC, extended panel; assay type: cell-based; details: Escherichia coli
Protocol: as §1, §2, §3, §4, §5, §6, §7, §8, §9, §10, §11, §12

[4] = system: E. coli DSM 1116 + 50% Human Serum; test: MIC determination in presence of 50% human serum; assay type: cell-based; details: Escherichia coli, DSM1116
Description: This investigation was completed by assessment of the antibacterial activity in presence of human plasma (50%) (Table 1), since high plasma protein binding can severely impair antibacterial activity and thus efficacy.
as §1, §2, §3, §4, §5, §6, §7, §8, §9, §10, §11

[5] = system: S. aureus (ciprofloxacin susceptible clinical isolate); test: MIC, extended panel; assay type: cell-based; details: Staphylococcus aureus
Protocol: as §1, §2, §3, §4, §5, §6, §7, §8, §9, §10, §11, §12
(§13) for the following 11 pathogenic isolates: […]

in vitro = details: plasma, pH 7.4
Protocol: Determination of plasma stability
Human and murine plasma aliquots (Sigma-Aldrich, Taufkirchen, Germany) were thawed and subsequently centrifuged at 3000 rpm for 10 min at 4°C. Resulting supernatant was diluted in the same volume of phosphate buffer (pH 7.4) to obtain a plasma concentration of 50% (v/v). Stock solutions of […]
concentration of 20 µM (5% DMSO). Following incubation at 37°C ice-cold methanol containing 30% […]
were centrifuged at 4000 rpm for 20 min at 4°C and 100 µL of supernatant were directly transferred to a fresh MS-vial. Samples were analyzed by LC/MS-MS experiments. Quantification of remaining compounds was performed by an external calibration curve of standard solutions in the range of […]

[6] = Pharmacokinetic study, i.v.
E. coli DNA gyrase = biological target: T1, E. coli DNA gyrase (Escherichia coli, UniProt P0AES4+P0AES6); test: E. coli gyrase supercoiling inhibition assay; assay type: biochemical; set-up: key: ↑: for stronger inhibition; ≈: for equal inhibition; ↓: for diminished inhibition compared to albicidin 1; details: constant concentration of 45 nM, compared to albicidin 1
T1 construct: purchased inspiralis Limited, Norwich, UK
T1 sequence (P0AES4 whole entry, one chain of several): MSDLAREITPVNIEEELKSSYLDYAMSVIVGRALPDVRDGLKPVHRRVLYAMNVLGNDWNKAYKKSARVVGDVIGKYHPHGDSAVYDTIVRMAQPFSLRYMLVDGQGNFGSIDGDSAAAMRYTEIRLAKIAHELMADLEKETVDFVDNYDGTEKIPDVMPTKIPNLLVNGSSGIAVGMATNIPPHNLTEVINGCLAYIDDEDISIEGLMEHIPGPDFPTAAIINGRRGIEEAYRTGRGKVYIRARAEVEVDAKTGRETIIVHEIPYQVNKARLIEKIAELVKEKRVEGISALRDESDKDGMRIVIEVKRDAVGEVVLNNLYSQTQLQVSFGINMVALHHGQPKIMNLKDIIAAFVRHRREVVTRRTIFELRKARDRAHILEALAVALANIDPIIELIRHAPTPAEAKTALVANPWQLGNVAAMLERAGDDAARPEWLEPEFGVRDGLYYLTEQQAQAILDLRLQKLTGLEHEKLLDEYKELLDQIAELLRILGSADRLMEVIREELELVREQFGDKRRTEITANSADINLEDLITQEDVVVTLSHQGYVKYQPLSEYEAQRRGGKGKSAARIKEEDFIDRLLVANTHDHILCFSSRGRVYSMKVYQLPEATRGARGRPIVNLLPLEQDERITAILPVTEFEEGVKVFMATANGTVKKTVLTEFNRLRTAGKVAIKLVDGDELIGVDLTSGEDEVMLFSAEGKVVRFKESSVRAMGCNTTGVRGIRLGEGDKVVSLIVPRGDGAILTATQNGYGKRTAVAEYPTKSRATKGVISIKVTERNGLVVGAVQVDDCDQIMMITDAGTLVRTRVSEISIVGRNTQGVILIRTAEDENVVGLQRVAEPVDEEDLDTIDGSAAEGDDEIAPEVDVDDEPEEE
Protocol: Escherichia coli Gyrase Supercoiling Inhibition Assay
loaded on an agarose gel.
2-15. […] Addition of DNA
All derivatives were tested at a concentration of […]

[7] = system: E. faecium (ciprofloxacin resistant clinical isolate); test: microbe, parasite or virus in culture; assay type: cell-based; details: Enterococcus faecium
Protocol: as §1, §2, §3, §4, §5, §6, §7, §8, §9, §10, §11, §12, §13

[8] = system: P. aeruginosa (ciprofloxacin resistant clinical isolate); test: microbe, parasite or virus in culture; assay type: cell-based; details: Pseudomonas aeruginosa
Protocol: as §1, §2, §3, §4, §5, §6, §7, §8, §9, §10, §11, §12, §13

[9] = system: fluoroquinolone-resistant (FQR) E. coli isolate; test: Murine septicaemia infection model; assay type: in vivo, CD-1 mice
Protocol: From a panel of clinical ESKAPE isolates one fluoroquinolone (FQR)-resistant E. coli strain was selected for the preparation of the infection model (Table S3 ^†). […] Bacterial payload (CFU) was measured from spleens and kidneys and compared to untreated control animals.
Pharmacokinetic calculations
1.1.3 Murine septicemia infection model
For in vivo infections study female CD-1 mice (RjOrl:SWISS, 6 weeks old) were purchased from Janvier Labs (Le Genest Saint Isle, France). The animals were allowed to acclimatize for at least seven days before the start of experiments. Group-Housing was realized in a pathogen-free, temperature- […]
and water ad libitum throughout the study. All experimental procedures were approved by and conducted in accordance to the institutional guidelines. […]
septicemia infection model. Following overnight incubation in Brain Heart infusion at 37°C, the strain was spin down at 2.500 rpm for 10 min. Immediately before use, bacteria pellet was resuspended in […]
For infection procedure, mice were briefly anesthetized with continuous inhalation of isoflurane.
100 µl of bacterial suspension were intravenously administered. At least nine animals were used for each of the following therapeutic groups:
- Untreated but infected animals: control group (PBS)
- Drug candidate, dose 1 group (6 mg kg-1);
- Drug candidate, dose 2 group (17 mg kg-1). […]
respectively. Animals were monitored for clinical signs throughout the whole study using a 4-point body condition score analyzing weight loss, respiratory distress, hampered mobility and hunched posture. Animals were euthanized after 24 hours of infection. Spleen and kidneys from each animal were removed, weighed, and homogenized in 2 mL of PBS and used for quantitative cultures on agar

M. luteus DSM1790 = test: MIC determination (broth microdilution); assay type: cell-based, Micrococcus luteus; details: Micrococcus luteus, DSM1790
Protocol: as §1, §2, §3, §4, §5, §6, §7, §8, §9, §10, §11

M. phlei DSM 750 = test: MIC determination (broth microdilution); assay type: cell-based, Mycobacterium phlei; details: Mycolicibacterium phlei, DSM750
Protocol: as §1, §2, §3, §4, §5, §6, §7, §8, §9, §10

[10] = system: S. aureus (ciprofloxacin resistant clinical isolate); test: microbe, parasite or virus in culture; assay type: cell-based, Staphylococcus aureus
Protocol: as §1, §2, §3, §4, §5, §6, §7, §8, §9, §10, §11, §12, §13

[11] = system: P. aeruginosa (ciprofloxacin susceptible clinical isolate); test: MIC, extended panel; assay type: cell-based, Pseudomonas aeruginosa
Protocol: as §1, §2, §3, §4, §5, §6, §7, §8, §9, §10, §11, §12, §13

S. Typhimurium TA100 = test: MIC determination (broth microdilution); assay type: cell-based, Salmonella typhimurium; details: Salmonella enterica; S. Typhimurium TA100; read-out: MIC
Protocol: as §1, §2, §3, §4, §5, §6, §7, §8, §9, §10, §11

E. coli DSM 1116 = test: MIC determination (broth microdilution); assay type: cell-based, Escherichia coli
Protocol: as §1, §2, §3, §4, §5, §6, §7, §8, §9, §10, §11

[12] = system: A. baumannii (ciprofloxacin resistant isolate); test: microbe, parasite or virus in culture; assay type: cell-based, Acinetobacter baumannii
Protocol: as §1, §2, §3, §4, §5, §6, §7, §8, §9, §10, §11, §12, §13

[13] = system: E. coli knockout mutants from the KEIO collection (TolC, tsx); test: MIC on E. coli knockout mutants (KEIO collection); assay type: cell-based; details: for MIC: Escherichia coli
[14] = system: E. faecium (ciprofloxacin susceptible clinical isolate); test: microbe, parasite or virus in culture; details: Enterococcus faecium
E. coli BW25113 = test: MIC determination (broth microdilution); assay type: cell-based; details: Escherichia coli
Protocol: as §1, §2, §3, §4, §5, §6, §7, §8, §9, §10, §11

B. subtilis DSM 10 = test: MIC determination (broth microdilution); assay type: cell-based; details: Bacillus subtilis, DSM10
Protocol: as §1, §2, §3, §4, §5, §6, §7, §8, §9, §10, §11

[15] = system: E. coli (ciprofloxacin resistant clinical isolate); test: microbe, parasite or virus in culture; assay type: cell-based, Escherichia coli
Protocol: as §1, §2, §3, §4, §5, §6, §7, §8, §9, §10, §11, §12

[16] = system: K. pneumoniae (ciprofloxacin resistant clinical isolate); test: microbe, parasite or virus in culture; assay type: cell-based; details: Klebsiella pneumoniae
Protocol: as §1, §2, §3, §4, §5, §6, §7, §8, §9, §10, §11, §12

[17] = system: Salmonella Kentucky (ciprofloxacin resistant clinical isolate); test: microbe, parasite or virus in culture; assay type: cell-based
Protocol: as §1, §2, §3, §4, §5, §6, §7, §8, §9, §10, §11, §12

[18] = 50 mg kg-1 i.v., 2-compartment analysis

With `COc1c(NC(=O)c2ccc(NC(=O)c3ccc(NC(=O)[C@H](Cc4c[nH]nn4)NC(=O)c4ccc(NC(=O)/C(C)=C/c5ccc(O)cc5)cc4)cn3)c(OC)c2O)ccc(C(=O)O)c1O` [Compound 7] the “activity, times higher than 2” value ([1]; CIP sensitive K. pneumonia) was 8 times, the MIC ([1]; Klebsiella pneumoniae) was 8 µg/mL (≈ 9.03 µM) and the “adverse effects or histopathological observations (tolerability study)” value (Tolerability assessment) was “did not show any adverse effects or histopathological observations”. It also gave an MIC [2] of 0.016 µg/mL (≈ 0.0181 µM), an MIC [3] of 0.016 µg/mL (≈ 0.0181 µM) and an MIC [4] of 0.5 µg/mL. For the same molecule, the MIC [5] was 0.016 µg/mL (≈ 0.0181 µM), the half-life at 20 µM (in vitro; human) was > 4 h and the half-life at 20 µM (in vitro; mouse) was 1.58 h. For the same molecule, the “T1/2 kel, mean” value [6, 18] was 1.4 h, the “T1/2 λz, mean” value [6, 18] was 8.3 h and the “plasma level as multiple of MIC for E. coli” value ([6]; 50 mg kg^−1 i.v., after 24 h) was “higher than 5 times MIC”. The “E. coli gyrase inhibition” value (E. coli DNA gyrase) was “↑”, the MIC [7] was 32 µg/mL (≈ 36.1 µM) and the MIC [8] was 2 µg/mL (≈ 2.26 µM). The “CFU reduction in kidney” value ([9]; 17 mg kg^−1 applied twice) was > 2 log units, the “CFU reduction in spleen” value ([9]; 17 mg kg^−1 applied twice) was “more than 3 log units” and the survival ([9]; 17 mg kg^−1 applied twice, lethal dose of FQR clinical isolate E. coli) was “all mice survived”. For the same molecule, the “survival after 24 h” value ([9]; 6 and 17 mg kg^−1 i.v. twice, lethal dose of FQR resistant E. coli) was “survived”, the “reduction of bacterial counts in kidneys” value ([9]; both tested doses (6 and 17 mg kg^−1 i.v. twice), versus untreated control) was > 3 log 10 CFU g^−1 and the MIC (M. luteus DSM1790) was 0.031 µg/mL (≈ 0.035 µM). The MIC (M. phlei DSM 750) was 0.25 µg/mL (≈ 0.282 µM), the “activity, times higher compared to 2” value ([10]; CIP-resistant S. aureus) was 8 times and the MIC ([10]; Staphylococcus aureus) was 0.063 µg/mL (≈ 0.0711 µM). The “activity, times higher than 2” value ([11]; CIP sensitive P. aeruginosa) was 4 times, the MIC ([11]; Pseudomonas aeruginosa) was 1 µg/mL (≈ 1.13 µM) and the MIC (S. Typhimurium TA100) was ≤ 0.016 µg/mL. For the same molecule, the “MIC for E. coli” value (E. coli DSM 1116; E. coli, strain not given) was 0.016 µg/mL, the MIC (E. coli DSM 1116; Escherichia coli, DSM1116) was ≤ 0.016 µg/mL and the MIC ([12]; Acinetobacter baumannii) was 0.016 µg/mL (≈ 0.0181 µM). The “activity, times higher compared to 2” value ([12]; CIP-resistant A. baumannii) was 125 times, the MIC ([13]; read-out: antimicrobial activity (MIC), TolC (efflux transporter) knockout mutation) was ≤ 0.016 µg/mL and the MIC ([13]; read-out: antimicrobial activity (MIC), before TolC knockout (parent strain)) was 0.063 µg/mL (≈ 0.0711 µM). The “increase of efficacy, factor” value ([13]; TolC knockout mutation) was 4, the decrease in activity ([13]; knockout mutation of the tsx gene) was 10 fold and the MIC [14] was 0.25 µg/mL (≈ 0.282 µM). The MIC (E. coli BW25113) was ≤ 0.016 µg/mL, the MIC (B. subtilis DSM 10) was 0.063 µg/mL (≈ 0.0711 µM) and the “activity, times higher compared to 2” value ([15]; CIP-resistant E. coli) was 4 times. The MIC ([15]; Escherichia coli) was 0.016 µg/mL (≈ 0.0181 µM), the MIC [16] was 64 µg/mL (≈ 72.2 µM) and the “activity, times higher compared to 2” value ([17]; CIP-resistant Salmonella Kentucky) was 8 times. It also gave an MIC ([17]; Salmonella enterica) of 0.016 µg/mL (≈ 0.0181 µM).

From article PMC8580050, “Improvement of the antimicrobial potency, pharmacokinetic and pharmacodynamic properties of albicidin by incorporation of nitrogen atoms” (Chemical Science, 2021)
